In ChEMBL document CHEMBL5344440, “Fragment Merging, Growing, and Linking Identify New Trypanothione Reductase Inhibitors for Leishmaniasis” (J Med Chem, 2024):
Values belong to the molecule of their own block, whether it stands above or below them.

Experiments:
[1] = tested on: glutathione reductase versus Leishmania infantum trypanothione reductase; assay: Selectivity index, ratio of IC50 for inhibition of human glutathione reductase expressed in Escherichia coli cells to IC50 for inhibition of Leishmania infantum Trypanothione reductase expressed in Escherichia coli BL21 (DE3); type: toxicity; details: read-out: Ratio IC50
THP-1 = assay: (§1) Cytotoxicity against PMA-differentiated human THP-1 cells assessed as reduction in cell viability measured after 72 hrs by MTT assay; type: toxicity, cell-based; details: thp-1, 72 h
[2] = Selectivity index, ratio of CC50 for cytotoxicity against human THP-1 cells to EC50 for antileishmanial activity against axenic amastigote form of Leishmania infantum MHOM/TN/80/IPT1; type: toxicity, cell-based; details: read-out: Ratio CC50/EC50
Peritoneal macrophage = assay: (§2) Cytotoxicity against BALB/c mouse peritoneal macrophages assessed as reduction in cell viability measured after 72 hrs by MTT assay; type: toxicity, cell-based; details: peritoneal macrophage, 72 h
[3] = target: Trypanothione reductase (Leishmania infantum) (UniProt A4HSF7); assay: Inhibition of Leishmania infantum Trypanothione reductase expressed in Escherichia coli BL21 (DE3) assessed as enzyme residual activity using trypanothione as substrate at 100 uM preincubated for 3 mins followed NADPH addition by spectrophotometric analysis
Leishmania infantum [4] = assay: Antileishmanial activity against amastigote form of Leishmania infantum infected in BALB/c mouse macrophages assessed as reduction in parasite infection at 12.5 uM measured after 72 hrs by Giemsa staining based optical microscopy relative to control; type: functional
[5] = target: Trypanothione reductase (Leishmania infantum) (UniProt A4HSF7); assay: Inhibition of Leishmania infantum Trypanothione reductase expressed in Escherichia coli BL21 (DE3) assessed as enzyme residual activity using trypanothione as substrate at 10 uM preincubated for 3 mins followed NADPH addition by spectrophotometric analysis
Leishmania infantum [6] = assay: Antileishmanial activity against axenic amastigote form of Leishmania infantum MHOM/TN/80/IPT1 assessed as parasite growth inhibition measured after 72 hrs by MTT assay; type: functional, organism-based; details: MHOM/TN/80/IPT1, 72 h
[7] = as §1; type: toxicity, cell-based; details: PMA-differentiated THP-1 cells
[8] = as §2; type: toxicity, cell-based, Peritoneal macrophage; details: BALB/c, peritoneal macrophages

Trypanothione reductase (Leishmania infantum), sequence (A4HSF7 as listed by the source): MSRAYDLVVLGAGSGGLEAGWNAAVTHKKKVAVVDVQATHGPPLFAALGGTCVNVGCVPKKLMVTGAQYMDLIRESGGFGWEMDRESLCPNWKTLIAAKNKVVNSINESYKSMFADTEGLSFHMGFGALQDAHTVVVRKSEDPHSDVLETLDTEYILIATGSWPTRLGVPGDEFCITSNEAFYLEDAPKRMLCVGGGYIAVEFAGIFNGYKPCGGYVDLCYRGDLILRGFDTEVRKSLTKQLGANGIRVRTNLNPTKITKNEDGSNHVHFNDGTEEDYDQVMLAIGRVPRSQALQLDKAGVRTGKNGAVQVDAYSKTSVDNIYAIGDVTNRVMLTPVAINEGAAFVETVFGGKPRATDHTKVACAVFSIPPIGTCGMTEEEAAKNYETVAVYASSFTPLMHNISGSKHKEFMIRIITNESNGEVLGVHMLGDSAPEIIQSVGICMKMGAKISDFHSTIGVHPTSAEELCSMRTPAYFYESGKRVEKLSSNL

SMILES: O=C(NCCc1ccc(F)cc1)c1ccc(CN(C(=O)N2CCN(CCCN3c4ccccc4Sc4ccc(Cl)cc43)CC2)c2ccc(F)cc2)o1
selectivity ratio [1]: 0.4
CC50 (THP-1): 6.5 µM
selectivity ratio [2]: 0.5
CC50 (Peritoneal macrophage): 9.1 µM

SMILES: CC(=O)N1CCN(CCCc2ccccc2)CC1
Activity [3]: 77.7%

SMILES: O=C(NCCc1ccc(F)cc1)c1ccc(CNC(=O)N2CC[N+](CCCc3ccccc3)(Cc3ccc(Cl)c(Cl)c3)CC2)o1
inhibition at 12.5 µM (Leishmania infantum [4]): 40%

SMILES: C[C@@H]1[C@H](O)[C@@H](C)/C=C/C=C/C=C/C=C/C=C/C=C/C=C/[C@H](O[C@@H]2O[C@H](C)[C@@H](O)[C@H](N)[C@@H]2O)C[C@@H]2O[C@](O)(C[C@@H](O)C[C@@H](O)[C@H](O)CC[C@@H](O)C[C@@H](O)CC(=O)O[C@H]1C)C[C@H](O)[C@H]2C(=O)O [AMPHOTERICIN B]
EC50 (Leishmania infantum [6]): 0.5 µM

SMILES: O=C(O)c1ccc(N(Cc2ccc(C(=O)NCCc3ccc(F)cc3)o2)C(=O)N2CCN(CCCc3ccccc3)CC2)cc1
selectivity ratio [2]: > 2

More lines, main results first:

Activity [5]: 70.8%
SMILES: O=C(NCCc1ccc(F)cc1)c1ccc(CN(C(=O)N2CCN(CCCN3c4ccccc4Sc4ccc(C(F)(F)F)cc43)CC2)c2ccc(F)cc2)o1
EC50 (Leishmania infantum [6]): 13 µM
CC50 at 72 h [7]: 23.4 µM
selectivity ratio [2]: 1.8
CC50 at 72 h [8]: 30.7 µM

Activity [5]: 94.1%
SMILES: O=C(NCCc1ccccc1)c1ccc(CN(C(=O)N2CCN(Cc3ccc(Cl)c(Cl)c3)CC2)c2ccc(F)cc2)o1
EC50 (Leishmania infantum [6]): 10.3 µM
CC50 at 72 h [7]: 11.7 µM
selectivity ratio [2]: 1.1
CC50 at 72 h [8]: 14.4 µM

Activity [3]: 85.3%
SMILES: O=C(NCCc1ccc(F)cc1)c1ccco1
